Results as given in ChEMBL document CHEMBL5096208, “Installation of Pargyline, a LSD1 Inhibitor, in the HDAC Inhibitory Template Culminated in the Identification of a Tractable Antiprostate Cancer Agent” (J Med Chem, 2021).
pIC50: −log10 of the molar value.

Tests used:
Histone deacetylase 5 = Histone deacetylase 5 (Homo sapiens, UniProt Q9UQL6); test: Inhibition of human HDAC5 using Boc-Lys(trifluoroacetyl)-AMC as flurogenic substrate
Histone deacetylase 7 = target: T1, Histone deacetylase 7 (Homo sapiens, UniProt Q8WUI4); test: Inhibition of human HDAC7 using Boc-Lys(trifluoroacetyl)-AMC as flurogenic substrate
T1 sequence (Q8WUI4 whole entry): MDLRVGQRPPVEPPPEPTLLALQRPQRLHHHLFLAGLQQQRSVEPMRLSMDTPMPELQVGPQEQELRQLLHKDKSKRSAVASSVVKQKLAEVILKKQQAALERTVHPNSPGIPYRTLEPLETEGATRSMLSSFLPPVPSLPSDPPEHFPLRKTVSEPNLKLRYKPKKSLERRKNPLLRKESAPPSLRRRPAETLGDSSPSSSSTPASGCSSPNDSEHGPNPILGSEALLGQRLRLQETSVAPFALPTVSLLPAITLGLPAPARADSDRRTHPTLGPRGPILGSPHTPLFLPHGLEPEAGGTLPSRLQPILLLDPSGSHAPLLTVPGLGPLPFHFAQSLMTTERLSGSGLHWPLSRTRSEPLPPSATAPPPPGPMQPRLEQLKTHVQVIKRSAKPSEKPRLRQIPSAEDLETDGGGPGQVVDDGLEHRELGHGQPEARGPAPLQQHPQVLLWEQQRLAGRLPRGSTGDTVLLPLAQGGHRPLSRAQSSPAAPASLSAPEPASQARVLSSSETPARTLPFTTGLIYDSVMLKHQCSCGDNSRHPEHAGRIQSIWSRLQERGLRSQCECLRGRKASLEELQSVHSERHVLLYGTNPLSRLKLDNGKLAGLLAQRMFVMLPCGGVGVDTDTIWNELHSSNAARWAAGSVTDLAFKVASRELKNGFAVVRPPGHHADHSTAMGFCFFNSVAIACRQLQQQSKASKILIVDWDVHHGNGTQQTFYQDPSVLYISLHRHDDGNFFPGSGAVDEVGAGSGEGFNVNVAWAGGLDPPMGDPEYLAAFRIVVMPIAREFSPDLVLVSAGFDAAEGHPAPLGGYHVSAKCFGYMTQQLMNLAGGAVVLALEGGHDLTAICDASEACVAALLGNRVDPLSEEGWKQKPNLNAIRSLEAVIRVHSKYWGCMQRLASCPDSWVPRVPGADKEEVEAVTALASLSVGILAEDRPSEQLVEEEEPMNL

[1] = target: T2, Polyamine deacetylase HDAC10 (Homo sapiens, UniProt Q969S8); test: Inhibition of human HDAC10 using Ac-Spermidine-AMC as flurogenic substrate
T2 sequence (Q969S8 whole entry): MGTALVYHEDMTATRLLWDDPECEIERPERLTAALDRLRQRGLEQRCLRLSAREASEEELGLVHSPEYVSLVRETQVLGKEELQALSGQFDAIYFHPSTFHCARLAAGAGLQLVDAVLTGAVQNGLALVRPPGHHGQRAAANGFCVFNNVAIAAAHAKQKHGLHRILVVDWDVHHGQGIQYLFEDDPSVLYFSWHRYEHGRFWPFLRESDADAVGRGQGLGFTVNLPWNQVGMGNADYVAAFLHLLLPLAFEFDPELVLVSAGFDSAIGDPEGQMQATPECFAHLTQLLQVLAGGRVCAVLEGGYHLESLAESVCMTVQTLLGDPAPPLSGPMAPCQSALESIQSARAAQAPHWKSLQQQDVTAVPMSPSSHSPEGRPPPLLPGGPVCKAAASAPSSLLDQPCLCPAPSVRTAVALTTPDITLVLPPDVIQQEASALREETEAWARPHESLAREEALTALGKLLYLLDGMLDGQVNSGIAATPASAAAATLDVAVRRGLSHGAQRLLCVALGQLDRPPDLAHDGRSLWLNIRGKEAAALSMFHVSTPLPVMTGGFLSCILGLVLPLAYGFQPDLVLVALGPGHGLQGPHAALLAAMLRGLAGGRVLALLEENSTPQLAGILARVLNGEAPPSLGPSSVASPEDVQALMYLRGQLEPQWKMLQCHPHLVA

[2] = target: T3, Amine oxidase [flavin-containing] B (Homo sapiens, UniProt P27338); test: Inhibition of human full length recombinant MAO-B expressed in insect cells using kynuramine as substrate; type: cell-based
T3 sequence (P27338 whole entry): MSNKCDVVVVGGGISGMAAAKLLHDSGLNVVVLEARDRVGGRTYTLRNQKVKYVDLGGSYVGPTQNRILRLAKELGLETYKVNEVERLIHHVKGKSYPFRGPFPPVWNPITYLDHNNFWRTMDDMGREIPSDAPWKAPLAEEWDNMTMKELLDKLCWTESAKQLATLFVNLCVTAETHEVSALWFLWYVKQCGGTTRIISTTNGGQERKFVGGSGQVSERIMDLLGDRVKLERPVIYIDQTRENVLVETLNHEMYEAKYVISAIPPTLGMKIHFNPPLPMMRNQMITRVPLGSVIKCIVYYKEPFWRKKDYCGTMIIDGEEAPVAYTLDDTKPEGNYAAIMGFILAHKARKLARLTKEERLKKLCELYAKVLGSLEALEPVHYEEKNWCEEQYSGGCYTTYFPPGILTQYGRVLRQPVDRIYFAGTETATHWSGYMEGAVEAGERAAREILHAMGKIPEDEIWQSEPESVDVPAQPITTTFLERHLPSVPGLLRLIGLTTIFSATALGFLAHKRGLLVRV

[3] = C0 in Sprague-Dawley rat at 2 mg/kg, iv administered as single dose through tail vein measured upto 24 hrs post dose by UPLC-MS/MS analysis; type: ADME, organism-based; settings: in vivo
[4] = AUC (0 to infinity) in Sprague-Dawley rat at 2 mg/kg, iv administered as single dose through tail vein measured upto 24 hrs post dose by UPLC-MS/MS analysis; type: ADME, organism-based; set-up: dose 2 mg/kg, time < 24 hrs, route iv; settings: in vivo
[5] = Metabolic stability in Sprague-Dawley rat hepatocyte assessed as parent compound remaining at 10 uM by LC-MS/MS analysis; type: ADME, cell-based; settings: hepatocytes, read-out: Stability
[6] = Metabolic stability in Sprague-Dawley rat hepatocyte assessed as parent compound remaining at 10 uM incubated for 30 mins by LC-MS/MS analysis; type: ADME, cell-based; settings: hepatocytes, read-out: Stability
[7] = Metabolic stability in Sprague-Dawley rat hepatocyte assessed as parent compound remaining at 10 uM incubated for 240 mins by LC-MS/MS analysis; type: ADME, cell-based; settings: hepatocytes, read-out: Stability
[8] = Metabolic stability in Beagle dog hepatocyte assessed as parent compound remaining at 10 uM incubated for 30 mins by LC-MS/MS analysis; type: ADME, cell-based, Canis lupus familiaris; settings: hepatocytes, read-out: Stability
[9] = Metabolic stability in Beagle dog hepatocyte assessed as parent compound remaining at 10 uM incubated for 120 mins by LC-MS/MS analysis; type: ADME, cell-based, Canis lupus familiaris; settings: hepatocytes, read-out: Stability
[10] = Metabolic stability in Beagle dog hepatocyte assessed as parent compound remaining at 10 uM incubated for 240 mins by LC-MS/MS analysis; type: ADME, cell-based, Canis lupus familiaris; settings: hepatocytes, read-out: Stability
[11] = Metabolic stability in human hepatocyte assessed as parent compound remaining at 10 uM incubated for 60 mins by LC-MS/MS analysis; type: ADME, cell-based; settings: hepatocytes, read-out: Stability
DU-145 = test: Antitumor activity against human DU-145 cells xenografted in athymic nude mouse assessed as tumor growth inhibition at 50 mg/kg, po qd measured upto 60 days by caliper method relative to control; type: functional; settings: DU-145, 1440 h, time <= 60 day, read-out: TGI

Histone deacetylase 5, sequence (Q9UQL6 whole entry): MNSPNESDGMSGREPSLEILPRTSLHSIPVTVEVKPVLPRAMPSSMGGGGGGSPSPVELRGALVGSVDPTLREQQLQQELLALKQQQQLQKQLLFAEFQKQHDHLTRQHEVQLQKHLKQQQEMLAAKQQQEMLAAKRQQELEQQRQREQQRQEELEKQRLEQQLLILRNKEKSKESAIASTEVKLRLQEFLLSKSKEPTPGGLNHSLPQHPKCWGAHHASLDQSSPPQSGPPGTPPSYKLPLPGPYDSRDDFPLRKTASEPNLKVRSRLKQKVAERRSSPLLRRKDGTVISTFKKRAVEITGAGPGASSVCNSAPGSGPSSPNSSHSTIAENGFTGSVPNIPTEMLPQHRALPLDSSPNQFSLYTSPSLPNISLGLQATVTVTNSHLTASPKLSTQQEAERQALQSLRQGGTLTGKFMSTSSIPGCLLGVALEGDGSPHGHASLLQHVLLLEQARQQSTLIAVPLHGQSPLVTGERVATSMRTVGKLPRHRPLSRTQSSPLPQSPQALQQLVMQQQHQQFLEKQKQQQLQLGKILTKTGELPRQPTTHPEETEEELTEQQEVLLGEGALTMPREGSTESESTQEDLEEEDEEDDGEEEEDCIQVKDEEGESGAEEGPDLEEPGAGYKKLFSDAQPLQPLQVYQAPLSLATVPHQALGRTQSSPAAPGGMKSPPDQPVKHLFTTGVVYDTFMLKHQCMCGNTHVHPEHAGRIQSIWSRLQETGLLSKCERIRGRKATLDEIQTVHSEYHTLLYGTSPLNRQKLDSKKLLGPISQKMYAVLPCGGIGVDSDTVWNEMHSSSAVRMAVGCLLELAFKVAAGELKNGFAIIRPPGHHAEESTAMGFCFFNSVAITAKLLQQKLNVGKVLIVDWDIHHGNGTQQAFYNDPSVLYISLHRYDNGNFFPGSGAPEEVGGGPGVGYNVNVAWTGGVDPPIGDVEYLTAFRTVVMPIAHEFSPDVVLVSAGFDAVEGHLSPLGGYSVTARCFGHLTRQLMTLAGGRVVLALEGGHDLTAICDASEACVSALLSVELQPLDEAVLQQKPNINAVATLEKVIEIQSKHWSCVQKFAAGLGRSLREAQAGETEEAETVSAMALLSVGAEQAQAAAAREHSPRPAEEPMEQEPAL

pIC50 (Histone deacetylase 5): 4.87
pIC50 (Histone deacetylase 7): < 5.00
pIC50 [1]: 6.43
pIC50 [2]: 4.17
C0 at 24 h [3]: 38.1 ng/mL
AUC(0-inf) [4]: 76.8 ng·h/mL
remaining at 10 µM [5]: 100%
remaining at 0.5 h, 10 µM [6]: 72.2%
remaining at 4 h, 10 µM [7]: 15.9%
remaining at 0.5 h, 10 µM [8]: 91.6%
remaining at 2 h, 10 µM [9]: 66.7%
remaining at 4 h, 10 µM [10]: 46.6%
remaining at 1 h, 10 µM [11]: 102%
SMILES: C#CCN(C)Cc1cccc(NC(=O)CCCCCCC(=O)NO)c1
inhibition in vivo at 50 mg/kg (DU-145): 65.8%
